From patent US9389235B2, “Methods of using biomarkers for predicting the outcome of an immunotherapy against cancer” (priority 2010, dated 2016)
Read-outs that look alike come from different tables or passages of the source.

System: metastatic RCC patients
Type: in vivo, human
Settings: for HR, overall survival, +CY vs −CY arm / HR (95% CI), overall survival, +CY vs −CY arm: IMA901-treated patients
Procedure: The IMA901-202 (phase II) study used univariate and multivariate analyses to identify parameters which alone or in combination serve as predictive biomarkers for the success in terms of immune response induction and prolongation of overall survival of IMA901 treatment of metastatic RCC patients.
To achieve this, around 450 parameters (patient- or tumor-related parameters as well as analytes measured in serum or urine and cellular parameters) were analyzed using pre-treatment samples of the IMA901-202 (phase II) study population. For multivariate analyses, which selected a set of several parameters, those parameters that required preparation of peripheral blood mononuclear cells (PBMCs) were not included in order to limit measurement costs in future trials. Parameters were analyzed for their association with overall survival and T-cell responses.
Thereby, the selection of purely prognostic markers, which by definition would show association with overall survival in both arms, was avoided.
All samples were collected before any therapeutic study intervention, either three days before vaccination and immediately before administration of cyclophosphamide in the +CY arm, or immediately before vaccination. Serum samples were taken using a serum/gel-[…] (Becton Dickinson, 5 ml), inverted and incubated for a minimum of 30 minutes. Tubes were centrifuged for 15 minutes at least 1200×g, and serum (approximately 2 ml) was transferred into a NUNC cryotube (3.6 ml). Cryotubes were stored immediately at <−20° C. until measurement. […] Urine was collected shortly before vaccination. For dipstick examination, only fresh urine was used. Citrated plasma for analysis of coagulation was collected approximately two weeks before vaccination. Samples were taken using a citrate-[…] and centrifuged within 30 minutes at least 1200×g at ambient temperature. Supernatant plasma was transferred into microtubes.
Biomarker measurement methods included ELISA, multiplex immunoassays, epigenetic assays, mass spectrometry, FACS analyses, routine clinical methods of haematology, clinical chemistry and urine analysis, and other methods.
The interaction of parameters with CY-pre-treatment was assessed using the Cox proportional hazards model. Candidates showing an interaction p value of <0.05 at any cutoff value that was not at the extreme ends of the distribution (i.e. selecting or de-selecting >˜5% of patients) were considered as interesting.
Moreover, to exclude parameters with significant interaction due to inverse association of cyclophosphamide pre-treatment with overall survival in the unfavorable biomarker group, an additional criterion was significant association (p<0.05) with overall survival in the positive biomarker group. A significant (p<0.05) association with overall survival in the +CY group, but not in the −CY group was considered to be an additional hint for the predictive instead of prognostic quality of a parameter.
Multivariate biomarkers were determined according to a Cox proportional hazard model, whose properties and extensions are described in the following.

`O=P1(N(CCCl)CCCl)NCCCO1` (stereo not shown) [cyclophosphamide] was tested, and the “patients still alive at the end of the study” value (CCL17/TARC-positive cyclophosphamide-pre-treated patients, IMA901 treatment (FIG. 1D)) was 75%, the “HR, interaction of biomarker with cyclophosphamide pre-treatment (overall survival)” value (“HR, interaction of biomarker” for short) (biomarker ApoA1, cutoff 0.264 mg/ml) was 0.43 and the “HR, interaction of biomarker” value (biomarker CCL17/TARC, cutoff 161.99 pg/ml) was 0.26. For the same compound, the “HR, interaction of biomarker” value (biomarker CXCL13/BCA-1, cutoff 64.21 pg/ml) was 0.3271, the “HR, interaction of biomarker” value (biomarker monocytes, cutoff 7.7%) was 0.22 and the “HR, overall survival, +CY vs −CY arm” value (biomarker-negative group, ApoA1, cutoff 0.264 mg/ml) was 0.84. For the same compound, the “HR, overall survival, +CY vs −CY arm” value (biomarker-negative group, CCL17/TARC, cutoff 161.99 pg/ml) was 0.85, the “HR, overall survival, +CY vs −CY arm” value (biomarker-negative group, CXCL13/BCA-1, cutoff 64.21 pg/ml) was 1.07 and the “HR, overall survival, +CY vs −CY arm” value (biomarker-negative group, monocytes, cutoff 7.7%) was 1.31. The “HR (95% CI), overall survival, +CY vs −CY arm” value (biomarker-negative group, multivariate biomarker, cutoff 0.019076043 points) was 2.5 (0.95-6.58);, the “HR, overall survival, +CY vs −CY arm” value (biomarker-positive group, ApoA1, cutoff 0.264 mg/ml) was 0.36 and the “HR, overall survival, +CY vs −CY arm” value (biomarker-positive group, CCL17/TARC, cutoff 161.99 pg/ml) was 0.22. The “HR, overall survival, +CY vs −CY arm” value (biomarker-positive group, CXCL13/BCA-1, cutoff 64.21 pg/ml) was 0.35, the “HR, overall survival, +CY vs −CY arm” value (biomarker-positive group, monocytes, cutoff 7.7%) was 0.29 and the “HR (95% CI), overall survival, +CY vs −CY arm” value (biomarker-positive group, multivariate biomarker, cutoff 0.019076043 points) was 0.08 (0.02-0.38);. The “HR (95% CI), interaction of multivariate biomarker with cyclophosphamide pre-treatment (overall survival)” value (multivariate biomarker, cutoff 0.019076043 points) was 0.032 (0.0055-0.1863);.
